From patent US12545685B2 (Daiichi Sankyo Company, Limited, priority 2011, dated 2026)

Target: T1, Mdm2/p53 binding (GST-Mdm2 / His-p53) (Homo sapiens, UniProt Q00987, L33E)
T1 construct: Mdm2 partial protein having Mdm2 amino acids at positions 25 to 108
Assay: Mdm2/p53 binding assay (HTRF, His-p53 and GST-Mdm2)
Conditions: His-p53 (aa 1-132) and GST-Mdm2 (aa 25-108, L33E) 6.25 nM each; 25°C, 1 hour; values given as ranges
Experimental: A protein dilution containing 6.25 nM each of His-p53 (fusion protein of a p53 partial protein having p53 amino acids at positions 1 to 132, with a histidine protein) and GST-Mdm2 (fusion protein of an Mdm2 partial protein having Mdm2 amino acids at positions 25 to 108 with leucine residue 33 substituted by glutamic acid, with glutathione transferase) proteins was prepared using a protein buffer solution (20 mM HEPES pH 7.4, 150 mM NaCl, 0.1% BSA). This protein dilution was added in an amount of 8 μl/well to a 384-well plate (384-well low volume NBC, Corning Inc., catalog No: 3676).
Next, a test compound was diluted with DMSO to produce a protein buffer solution containing 10% dilution, and this buffer solution was added in an amount of 4 μl/well to the plate.
Subsequently, a solution containing an XL665-labeled anti-His antibody (HTRF monoclonal anti-6HIS antibody labeled with XL665 (catalog No: 61HISXLB), Schering/Cisbio Bioassays) and a europium (Eu)-labeled anti-GST antibody (HTRF monoclonal anti-GST antibody labeled with europium cryptate, Schering/Cisbio Bioassays, catalog No: 61GSTKLB) at concentrations of 2.5 μg/ml and 0.325 μg/ml, respectively, was prepared using an antibody diluting buffer solution (20 mM HEPES pH 7.4, 150 mM NaCl, 0.1% BSA, 0.5 M KF). These dilutions were added in an amount of 8 μl/well (total reaction solution volume: 20 μl/well). Then the plate was incubated at 25° ° C. for 1 hour.
Time-resolved fluorescence at 620 and 665 nm was measured at an excitation wavelength of 320 nm using a plate reader (ARVOsx, PerkinElmer Co., Ltd. or PHERAstar, BMG LABTECH). Ratio (R) was calculated using the measured values (RFU 620 nm and RFU 665 nm) according to the following formula: […]
BI: measured value at 665 nm of reaction solution (only each buffer solution) nonsupplemented with each protein, the compound, and the antibodies
A and D: each measured value at 665 nm and 620 nm of reaction solution supplemented with only Eu-labeled anti-GST antibody solution
The R value calculated from the well supplemented with His-p53, GST-Mdm2, the test compound, and each antibody was defined as R (sample). The R value calculated from the well supplemented with His-p53, GST-Mdm2, and each antibody but without the test compound was defined as R (control). The R value calculated from the well supplemented with GST-Mdm2 the test compound, and each antibody but without His-p53 was defined as R (background). T/C was calculated from the formula shown below. An IC50 value for Mdm2/p53 binding was calculated by sigmoid fitting.

T1 sequence (Q00987 25-108 L33E): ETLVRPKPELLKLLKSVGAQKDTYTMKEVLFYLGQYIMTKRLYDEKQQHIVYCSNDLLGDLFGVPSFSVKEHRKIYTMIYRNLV

| IC50 | Compound |
| --- | --- |
| 50 to 100 nM | CC1(C)CCC2(CC1)N[C@@H](C(=O)N[C@@H]1CC[C@@H](c3ncon3)OC1)[C@H](c1ccnc(Cl)c1)[C@]21C(=O)Nc2cc(Cl)ccc21 [Example 63, (3′R,4′R,5′R)-6″-chloro-4′-(2-chloropyridin-4-yl)-4,4-dimethyl-N-[(3R,6S)-6-(1,2,4-oxadiazol-3-yl)tetrahydro-2H-pyran-3-yl]-2″-oxo-1″,2″-dihydrodispiro[cyclohexane-1,2′-pyrrolidine-3′,3″-indole]-5′-carboxamide] |
| 50 to 100 nM | CC1(C)CCC2(CC1)N[C@@H](C(=O)N[C@@H]1CC[C@@H](c3ncon3)OC1)[C@H](c1ccnc(Cl)c1F)[C@]21C(=O)Nc2cc(Cl)ccc21 [Example 64, (3′R, 4′S,5′R)-6″-chloro-4′-(2-chloro-3-fluoropyridin-4-yl)-4,4-dimethyl-N-[(3R,6S)-6-(1,2,4-oxadiazol-3-yl)tetrahydro-2H-pyran-3-yl]-2″-oxo-1″,2″-dihydrodispiro[cyclohexane-1,2′-pyrrolidine-3′,3″-indole]-5′-carboxamide] |
| 1 to 50 nM | CC1(C)CCC2(CC1)N[C@@H](C(=O)N[C@@H]1CC[C@@H](c3n[nH]c(=O)o3)OC1)[C@H](c1ccnc(Cl)c1F)[C@]21C(=O)Nc2nc(Cl)ccc21 [Example 65, (3′R, 4′S,5′R)-6″-chloro-4′-(2-chloro-3-fluoropyridin-4-yl)-4,4-dimethyl-2″-oxo-N-[(3R,6S)-6-(5-oxo-4,5-dihydro-1,3,4-oxadiazol-2-yl)tetrahydro-2H-pyran-3-yl]-1″,2″-dihydrodispiro[cyclohexane-1,2′-pyrrolidine-3′,3″-pyrrolo[2,3-b]pyridine]-5′-carboxamide] |
| 50 to 100 nM | CC1(C)CCC2(CC1)N[C@@H](C(=O)N[C@@H]1CC[C@@H](c3ncon3)OC1)[C@H](c1ccnc(Cl)c1F)[C@]21C(=O)Nc2nc(Cl)ccc21 [Example 66, (3′R, 4′S,5′R)-6″-chloro-4′-(2-chloro-3-fluoropyridin-4-yl)-4,4-dimethyl-N-[(3R,6S)-6-(1,2,4-oxadiazol-3-yl)tetrahydro-2H-pyran-3-yl]-2″-oxo-1″,2″-dihydrodispiro[cyclohexane-1,2′-pyrrolidine-3′,3″-pyrrolo[2,3-b]pyridine]-5′-carboxamide] |
| 1 to 50 nM | CO[C@@H]1C[C@@H](NC(=O)[C@@H]2NC3(CCC(C)(C)CC3)[C@@]3(C(=O)Nc4nc(Cl)ccc43)[C@H]2c2cccc(Cl)c2F)CO[C@@H]1CO [Example 68, (3′R, 4′S,5′R)-6″-chloro-4′-(3-chloro-2-fluorophenyl)-N-[(3R,5R,6R)-6-(hydroxymethyl)-5-methoxytetrahydro-2H-pyran-3-yl]-4,4-dimethyl-2″-oxo-1″,2″-dihydrodispiro[cyclohexane-1,2′-pyrrolidine-3′,3″-pyrrolo[2,3-b]pyridine]-5′-carboxamide] |
| 1 to 50 nM | CC1(C)CCC2(CC1)N[C@@H](C(=O)N[C@@H]1CC[C@@H](C(N)=O)OC1)[C@H](c1ccnc(Cl)c1F)[C@]21C(=O)Nc2nc(Cl)ccc21 [Example 71, (3′R, 4′S, S′R)—N-[(3R,6S)-6-carbamoyltetrahydro-2H-pyran-3-yl]-6″-chloro-4′-(2-chloro-3-fluoropyridin-4-yl)-4,4-dimethyl-2″-oxo-1″,2″-dihydrodispiro[cyclohexane-1,2′-pyrrolidine-3′,3″-pyrrolo[2,3-b]pyridine]-5′-carboxamide] |
| 1 to 50 nM | CC1(C)CCC2(CC1)N[C@@H](C(=O)N[C@H]1CC[C@H](N3CC(O)C3)CC1)[C@H](c1ccnc(Cl)c1F)[C@]21C(=O)Nc2cc(Cl)ccc21 [Example 72, (3′R, 4′S,5′R)-6″-chloro-4′-(2-chloro-3-fluoropyridin-4-yl)-N-[trans-4-(3-hydroxyazetidine-1-yl)cyclohexyl]-4,4-dimethyl-2″-oxo-1″,2″-dihydrodispiro[cyclohexane-1,2′-pyrrolidine-3′,3″-indole]-5′-carboxamide] |
